Residues, ends and D or L forms follow the SMILES beside them. No end group written: not given here. *: point of attachment. Tos = Cc1ccc(S(=O)(=O)*)cc1; Bz = O=C(c1ccccc1)* A value given as a limit tells only on which side of the number the result lay.

The target in data set [1] is Proteinase K (Parengyodontium album, UniProt P06873). Description: in vitro. The settings on record: Proteinase K (1 μg/ml), pH 7.6.
Method: The degradation is expressed as the percentage of peptide degraded after a determined time interval calculated from the decrease in the area of the peak of the native peptide by HPLC.
The stability of the peptides of the invention to degradation by proteases is determined by a peptide digestion test by Proteinase K (Sigma-Aldrich Corporation, Madrid, Spain).
A solution of 50 μg/ml of the peptide and 1 μg/ml of Proteinase K in 100 mM TRIS buffer at pH 7.6 was used, at ambient temperature.
The progress of the peptide excision was determined chromatographically at times between 5 and 45 minutes. To do this a reverse phase C18 column was used (Kromasil, 4.6×40 mm; 3.5 μm particle size), and linear gradients from 0.98:0.02 to 0:1 during 7 min performing the detection by absorbance in ultraviolet light at 220 nm.
For data set [2], the system named is Erwinia amylovora PMV6076. Briefly: Minimum inhibitory concentration (MIC), microbial growth by optical density. The settings on record: 48 h incubation at 25° C., TSB medium. The class given is cell-based. How it is done:
(§1) Each experiment was performed twice.

Data set [3] relates to Pseudomonas syringae EPS94. Described as above. The class given is cell-based. The settings on record: 48 h incubation at 25° C., TSB medium. The method, then: as §1
Data set [4] deals with erythrocytes from fresh human blood. The settings on record: 5% erythrocytes, 1 h at 37° C., relative to 200 μM melittin; for % Haemolysis 50 μM: 50 μM peptide; for % Haemolysis 150 μM: 150 μM peptide; for % Haemolysis 250 μM: 250 μM peptide. The method, then:
A description of the methodology used to determine the haemolytic activity is found in Oren et al, Biochemistry, 2000, 39, 6103-6114, and in Raguse et al., J. Am. Chem. Soc., 2002, 124, 12774-12785.
The haemolytic activity of the peptides of the invention was evaluated by determining the release of haemoglobin which is produced on placing in contact a solution of the peptides with a suspension of erythrocytes 5% by volume, from fresh human blood.
The blood was collected aseptically using a Vactainer® K2E system (Belliver, Great Britain) with EDTA and it was stored at 4° C. for a period lower than 2 hours.
The blood was centrifuged at 6000 g for 5 minutes to separate the erythrocytes. There were washed three times with TRIS buffer (10 mM TRIS, 150 mM NaCl, pH 7.2) and they were resuspended in TRIS buffer until obtaining a suspension which contained 10% by volume of erythrocytes.
The peptides were solubilized in TRIS buffer until a final concentration of 100, 300 and 500 μM
The replicas were used for each peptide and concentration.
65 μl of 10% erythrocyte suspension was mixed with 65 μl of the peptide solution in each well of a 96-well plate (Micro-Amp®, Applied Biosystems, USA) (5% by volume of erythrocytes) and the mixture was incubated for 1 h at 37° C. under stirring. In this way, the erythrocyte suspensions were subjected to peptide concentrations of 50, 150 and 250 μM.
Next, the plates were centrifuged at 3500 g during 10 minutes and aliquots were transferred of 80 μl of supernatant to microplates with 100 wells (Bioscreen), which were diluted with 80 μl of milli-Q water.
The degree of haemolysis was determined from the absorbance at 540 nm with a Bioscreen plate reader.
The complete positive haemolysis control was determined in a TRIS buffer solution which contained 200 μM melittin (Sigma-Aldrich, Spain)
The percentage of haemolysis (H) was determined using the following equation: H=100×[Op−Ob)/(Om−Ob)]
Where OP as the optical density measured for a determined peptide concentration, Ob was the optical density of the buffer solution, and Om was the optical density for the positive control with melittin.

Data set [5] has as its system Xanthomonas vesicatori 2133-2. Briefly: Minimum inhibitory concentration (MIC), microbial growth by optical density. The settings on record: 48 h incubation at 25° C., TSB medium.
Method: All the bacteria were stored at a temperature of −80° C. in Luria-Bertani (LB) medium supplemented with 20% glycerine in volume/volume.
In all cases they were resuspended in sterile water to obtain a suspension adjusted to an absorbance of 0.2 to 60 nm, which approximately corresponds to 10^8 colony forming units.
To determine the minimum inhibitory concentration (MIC), the peptides were solubilized in milli-Q sterile water until a final concentration of 1000 μM and they were filtered through a 0.22 μm pore size filter.
Dilutions of the peptides of the invention were made to obtained solutions at the concentrations of 750, 500, 250, 200, 150, 125, 100, 75, 50 and 25 μM.
20 μl of each dilution were mixed with 20 μl of the suspension of the corresponding bacterial indicator, and 160 μl of the TSB (Trypticase Soy Broth) liquid medium until a total volume of 200 μl in each well of a microplate.
Two replicas were carried out for each strain, concentration and peptide under study.
The positive controls contained water instead of peptide, and the negative controls contained the peptides without the bacterial suspension.
The microbial growth was determined automatically by optical density at 600 nm using the Microbiology Analyser Bioscreen C (Labsystems)
The microplates were incubated at 25° C. for 48 hours with stirring for 20 seconds before measuring the absorbance every hour. Each experiment was performed twice.
Setting [6] is: listed as peptide described by Cavallarin et al.

Chain of Proteinase K (P06873 106-384): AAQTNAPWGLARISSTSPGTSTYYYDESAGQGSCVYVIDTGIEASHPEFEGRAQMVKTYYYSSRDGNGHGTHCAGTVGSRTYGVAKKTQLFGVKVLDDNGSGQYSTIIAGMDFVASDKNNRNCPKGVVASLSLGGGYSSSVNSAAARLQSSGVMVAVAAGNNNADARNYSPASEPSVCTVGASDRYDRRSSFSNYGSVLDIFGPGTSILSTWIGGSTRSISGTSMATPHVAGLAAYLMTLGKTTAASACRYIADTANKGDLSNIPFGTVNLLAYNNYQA

Regarding `CC[C@H](C)[C@H](NC(=O)[C@H](CCCCN)NC(=O)[C@H](CCCCN)NC(=O)[C@H](Cc1ccccc1)NC(=O)[C@H](CC(C)C)NC(=O)[C@H](CCCCN)NC(=O)[C@H](Cc1c[nH]c2ccccc12)NS(=O)(=O)c1ccc(C)cc1)C(=O)N[C@@H](CC(C)C)C(=O)N[C@@H](CCCCN)C(=O)N[C@H](C(=O)N[C@@H](CC(C)C)C(N)=O)C(C)C` [BP009] (Tos-WKLFKKILKVL-NH2), the metabolised at 0.75 h, 50 μg/ml in data set [1] is 100%.
In the case of `CC[C@H](C)[C@H](NC(=O)[C@H](CCCCN)NC(=O)[C@H](CCCCN)NC(=O)[C@H](Cc1ccccc1)NC(=O)[C@H](CC(C)C)NC(=O)[C@H](CCCCN)NC(=O)[C@H](Cc1c[nH]c2ccccc12)NC(=O)c1ccccc1)C(=O)N[C@@H](CC(C)C)C(=O)N[C@@H](CCCCN)C(=O)N[C@H](C(=O)N[C@@H](CC(C)C)C(N)=O)C(C)C` [BP010] (Bz-WKLFKKILKVL-NH2), the “range of concentrations including the MIC, E. amylovora” value (“range … E. amylovora” for short) in data set [2] is over 7.5 µM. The “range of concentrations including the MIC, P. syringae” value (shortened to “range … P. syringae”) in data set [3] is over 7.5 µM. Besides, in data set [4], the “% Haemolysis 50 μM” value amounted to 77%, the “% Haemolysis 150 μM” value is 77% and the “% Haemolysis 250 μM” value is given as 76%. In data set [1], this molecule yielded a metabolised at 0.75 h, 50 μg/ml of 100%. In addition, the “range of concentrations including the MIC, X. vesicatoria” value (shortened to “range … X. vesicatoria”) in data set [5] is under 2.5 µM.
Take `CC[C@H](C)[C@H](NC(=O)[C@H](CCCCN)NC(=O)[C@H](CCCCN)NC(=O)[C@H](Cc1ccccc1)NC(=O)[C@H](CC(C)C)NC(=O)[C@H](CCCCN)NC(=O)[C@@H](N)CCCCN)C(=O)N[C@@H](CC(C)C)C(=O)N[C@@H](CCCCN)C(=O)N[C@H](C(=O)N[C@@H](CC(C)C)C(N)=O)C(C)C` [BP015]: in data set [2], the “range … E. amylovora” value was in the range of 5 to 7.5 µM. In data set [3], the “range … P. syringae” value is 2.5 to 5 µM. Besides, in data set [4], the “% Haemolysis 50 μM” value amounted to 0%, the “% Haemolysis 150 μM” value stood at 16% and the “% Haemolysis 250 μM” value stood at 45%. Also, in data set [1], the metabolised at 0.75 h, 50 μg/ml worked out at 100%. Moreover, the “range … X. vesicatoria” value in data set [5] is over 7.5 µM.
As for `CC[C@H](C)[C@H](NC(=O)[C@H](CCCCN)NC(=O)[C@H](CCCCN)NC(=O)[C@H](Cc1ccccc1)NC(=O)[C@H](CC(C)C)NC(=O)[C@H](CCCCN)NC(=O)[C@@H](N)Cc1c[nH]c2ccccc12)C(=O)N[C@@H](CC(C)C)C(=O)N[C@@H](CCCCN)C(=O)N[C@@H](Cc1ccc(O)cc1)C(=O)N[C@@H](CC(C)C)C(N)=O` [BP020], the “range … E. amylovora” value in data set [2] lay within 2.5 to 5 µM. For the same molecule, the “range … P. syringae” value in data set [3] is 2.5 to 5 µM. In addition, in data set [4], the “% Haemolysis 50 μM” value is given as 78%, the “% Haemolysis 150 μM” value came to 77% and the “% Haemolysis 250 μM” value came out at 72%. In data set [1], the metabolised at 0.75 h, 50 μg/ml worked out at 85%. The “range … X. vesicatoria” value in data set [5] was 2.5 to 5 µM.
Take `CC[C@H](C)[C@H](NC(=O)[C@H](CCCCN)NC(=O)[C@H](CCCCN)NC(=O)[C@H](Cc1ccccc1)NC(=O)[C@H](CC(C)C)NC(=O)[C@H](CCCCN)NC(=O)[C@H](CCCCN)NC(C)=O)C(=O)N[C@@H](CC(C)C)C(=O)N[C@@H](CCCCN)C(=O)N[C@@H](Cc1ccccc1)C(=O)N[C@@H](CC(C)C)C(N)=O` [BP077]: the “range … E. amylovora” value in data set [2] lay within 5 to 7.5 µM. In addition, in data set [3], the “range … P. syringae” value was 5 to 7.5 µM. Also, in data set [4], the “% Haemolysis 50 μM” value is listed as 6%, the “% Haemolysis 150 μM” value was determined as 40% and the “% Haemolysis 250 μM” value worked out at 81%. The molecule further gave a metabolised at 0.75 h, 50 μg/ml in data set [1] of 84%. The “range … X. vesicatoria” value in data set [5] was under 2.5 µM.
For the molecule `CC[C@H](C)[C@H](NC(=O)[C@H](CCCCN)NC(=O)[C@H](CCCCN)NC(=O)[C@H](Cc1ccccc1)NC(=O)[C@H](CC(C)C)NC(=O)[C@H](CCCCN)NC(=O)[C@@H](N)CCCCN)C(=O)N[C@@H](CC(C)C)C(=O)N[C@@H](CCCCN)C(=O)N[C@@H](Cc1ccc(O)cc1)C(=O)N[C@@H](CC(C)C)C(N)=O` [BP100], in data set [4], the “% Haemolysis 50 μM” value stood at 3%, the “% Haemolysis 150 μM” value stood at 22% and the “% Haemolysis 250 μM” value is on record as 43%. The metabolised at 0.75 h, 50 μg/ml in data set [1] worked out at 60%. In data set [5], the “range … X. vesicatoria” value was 5 to 7.5 µM.
As to `CC[C@H](C)[C@H](NC(=O)[C@H](CCCCN)NC(=O)[C@H](CCCCN)NC(=O)[C@H](Cc1ccccc1)NC(=O)[C@H](CC(C)C)NC(=O)[C@H](CCCCN)NC(=O)[C@H](CCCCN)NS(=O)(=O)c1ccc(C)cc1)C(=O)N[C@@H](CC(C)C)C(=O)N[C@@H](CCCCN)C(=O)N[C@@H](CCCCN)C(=O)N[C@@H](CC(C)C)C(N)=O` [BP125], the “range … E. amylovora” value in data set [2] is over 7.5 µM. For the same molecule, in data set [3], the “range … P. syringae” value is 2.5 to 5 µM. Further, in data set [4], the “% Haemolysis 50 μM” value is on record as 2%, the “% Haemolysis 150 μM” value was determined as 8% and the “% Haemolysis 250 μM” value came out at 23%. In data set [1], this molecule registered a metabolised at 0.75 h, 50 μg/ml of 67%. Besides, the “range … X. vesicatoria” value in data set [5] lay within 2.5 to 5 µM.
Turning to Ac-WKLFKKILKVL-NH2 [BP008], the metabolised at 0.75 h, 50 μg/ml in data set [1] amounted to 100%.
As for LKLFKKILKFL-NH2 [BP081], in data set [2], the “range … E. amylovora” value fell in the range of 2.5 to 5 µM. For the same molecule, in data set [3], the “range … P. syringae” value fell in the range of 2.5 to 5 µM. In data set [4], the “% Haemolysis 50 μM” value worked out at 10%, the “% Haemolysis 150 μM” value was 65% and the “% Haemolysis 250 μM” value came out at 88%. For the same molecule, in data set [5], the “range … X. vesicatoria” value is under 2.5 µM.
Consider LKLFKKILKVL-NH2 [BP033], for which, in data set [2], the “range … E. amylovora” value lay within 5 to 7.5 µM. In addition, in data set [3], the “range … P. syringae” value lay within 5 to 7.5 µM. In data set [4], the “% Haemolysis 50 μM” value is on record as 4%, the “% Haemolysis 150 μM” value amounted to 38% and the “% Haemolysis 250 μM” value came out at 68%. Moreover, in data set [1], the metabolised at 0.75 h, 50 μg/ml came out at 100%. The “range … X. vesicatoria” value in data set [5] is over 7.5 µM.
As for WKLFKKILKFL-NH2 [BP019], the “range … E. amylovora” value in data set [2] is 5 to 7.5 µM. Further, the “range … P. syringae” value in data set [3] is 5 to 7.5 µM. For the same molecule, in data set [4], the “% Haemolysis 50 μM” value was 57%, the “% Haemolysis 150 μM” value is recorded as 94% and the “% Haemolysis 250 μM” value worked out at 100%. Further, in data set [1], the metabolised at 0.75 h, 50 μg/ml worked out at 87%. Besides, in data set [5], the “range … X. vesicatoria” value fell in the range of 2.5 to 5 µM.
“WKLFKKILKVL-NH2 [Comparative example, reference compound]”: the “range … E. amylovora” value in data set [2] (setting [6]) is “over 7.5 μM”. The “range … P. syringae” value in data set [3] (setting [6]) is on record as “over 7.5 μM”. The molecule further yielded a metabolised at 0.75 h, 50 μg/ml in data set [1] of 100%. Further, the “range … X. vesicatoria” value in data set [5] (setting [6]) is on record as “over 7.5 μM”.
Regarding WKLFKKILKWL-NH2 [BP018], the “range … E. amylovora” value in data set [2] fell in the range of 5 to 7.5 µM. The “range … P. syringae” value in data set [3] was 5 to 7.5 µM. Besides, in data set [4], the “% Haemolysis 50 μM” value is reported as 78%, the “% Haemolysis 150 μM” value came out at 68% and the “% Haemolysis 250 μM” value is 74%. Besides, the “range … X. vesicatoria” value in data set [5] turned out to be 2.5 µM.
For YKLFKKILKWL-NH2 [BP047], the “range … E. amylovora” value in data set [2] is 5 to 7.5 µM. In addition, in data set [3], the “range … P. syringae” value was 5 to 7.5 µM. Moreover, in data set [4], the “% Haemolysis 50 μM” value is listed as 81%, the “% Haemolysis 150 μM” value is reported as 76% and the “% Haemolysis 250 μM” value was found to be 82%. Further, the “range … X. vesicatoria” value in data set [5] lay in the range of 2.5 to 5 µM.

The record behind these values is patent US8026219B2, “Antimicrobial linear peptides” (Universitat de Girona, priority 2006, dated 2011).
